Values of other authors, collected in PMC5601361, “Targeting the Receptor for Advanced Glycation Endproducts (RAGE): A Medicinal Chemistry Perspective” (Journal of Medicinal Chemistry, 2017).
Entries after “also recorded” stand apart in the source; their conditions may differ. Where two headings read alike, the source gives them in different places.

Assays:
C6 glioma cells = tested on: C6 glioma cells; design: method as in PMID 22742537; settings: in vitro; 3 at 10 μM
human RAGE-Aβ1–42 = settings: ELISA on human RAGE-Aβ1–42; for inhibitory activity compared with another compound: at 20 μM
wild-type mice = tested on: wild-type mice; design: method as in PMID 22742537, PMID 24727489; settings: given prior to human Aβ administration, 3 ip, 7 iv 25 mg/kg
human RAGE [1] = target: human RAGE; design: method as in PMID 22742537, PMID 24727489; settings: SPR
[2] = design: method as in PMID 25533401
sRAGE [3] = tested on: sRAGE
sRAGE [4] = tested on: sRAGE; remark: listed apart in the source
[5] = tested on: RAGE-transfected CHO cells
[6] = tested on: Wistar rats treated with AGEs; design: method as in PMID 26738988; settings: ip 1 mg/kg/day for 4 weeks
aortas of aged rats = tested on: aortas of aged rats; design: method as in PMID 25160740
[7] = tested on: RAGE-overexpressing SH-SY5Y cells
Aβ = tested on: Aβ; design: method as in PMID 26899576; settings: 50 μM
human sRAGE [8] = target: human sRAGE; design: method as in PMID 24824951; settings: V domain; read-out: affinity for RAGE (Kd)
[9] = design: method as in PMID 26771209
[10] = design: method as in PMID 26771209; remark: listed apart in the source
human brain tissue = tested on: human brain tissue; design: method as in PMID 26771209
rats = tested on: rats; design: method as in PMID 25757085, PMID 20223279
diabetic mice = tested on: diabetic mice; design: method as in PMID 18245563, PMID 26807573, PMID 14568011
[11] = tested on: immune-deficient mice implanted with cancer cells; design: method as in PMID 22718861; settings: ip delivery
[12] = tested on: pancreatic cancer cell lines; design: method as in PMID 22718861; settings: several cancer cell lines
rat and mouse sRAGE = target: rat and mouse sRAGE; design: method as in PMID 7592757; settings: VC1C2
human RAGE [13] = target: human RAGE; design: method as in PMID 22493510, PMID 21347371; settings: SPR on human RAGE
[14] = tested on: LLC and B16 melanoma cells; design: method as in PMID 22493510, PMID 21347371; settings: single preadministration
tumor cell = tested on: tumor cell; design: method as in PMID 23421467; settings: in vitro and in vivo
human sRAGE [15] = target: human sRAGE; design: method as in PMID 22406537; settings: V domain, read-out: affinity for RAGE (Kd)
human RAGE [16] = target: human RAGE; design: method as in PMID 25084534; settings: V domain; Ca2+-bound S100P homodimer; read-out: affinity for RAGE (Kd)
[17] = read-out: IC50, interaction of sRAGE to CML
[18] = read-out: IC50, interaction of sRAGE to S110B
[19] = read-out: IC50, interaction of sRAGE to amyloid β

CCN(CC)CCOc1cccc(Nc2nc(-c3ccc(Cl)cc3)cc(-c3ccc(Cl)cc3)n2)c1 [Compound 3]
concentration of toxic soluble Aβ in the brain (APPswe/PS1 mice; oral 50 mg/kg per day for up to three months): significantly lowered
Aβ-induced NF-κB signaling (C6 glioma cells): down-regulation; also recorded: • downregulation of Aβ-induced NF-κB (in vitro)
IC50 (human RAGE-Aβ1–42): 16500 nM
Aβ brain entry / accumulation in the brain (wild-type mice; 25 mg/kg): inhibited Aβ brain entry; also recorded: • inhibition of Aβ accumulation in the brain (in vivo)
Kd (human RAGE [1]): 102000 nM

CCN(CC)CCOc1ccccc1Nc1nc(-c2ccc(Cl)cc2)cc(-c2ccc(Cl)cc2)n1 [Compound 4]
Aβ-induced NF-κB signaling (C6 glioma cells): • downregulation of Aβ-induced NF-κB (in vitro)
IC50 (human RAGE-Aβ1–42): 4600 nM
Aβ brain entry / accumulation in the brain (wild-type mice): • inhibition of Aβ accumulation in the brain (in vivo)

CN(C)C1CCN(CCOc2cccc(Nc3nc(-c4ccc(Cl)cc4)cc(-c4ccc(Cl)cc4)n3)c2)C1 (stereo not shown) [Compound 5]
inhibitory activity compared with another compound (human RAGE-Aβ1–42): improved RAGE-Aβ1–42 inhibition
solubility compared to 3 [2]: improved

CCN(CC)CCOc1ccc(OC)cc1NC(=O)c1nc(-c2ccc(F)cc2)cc(-c2ccc(F)cc2)n1 [Compound 6]
inhibitory activity compared with another compound (human RAGE-Aβ1–42): superior RAGE inhibition than 3

CCCCOc1cc(OCCCN(CC)CC)ccc1NC(=O)c1cc(-c2ccc(Oc3ccc(F)cc3)cc2)nn1C [Compound 7]
Aβ brain entry / accumulation in the brain (wild-type mice): reduce Aβ entry in the brain
Kd (human RAGE [1]): 43400 nM

CCCCOc1cc(OCCCN(CC)CC)ccc1NC(=O)C(CC1CCN(Cc2ccccc2)CC1)NC(=O)OCC1c2ccccc2-c2ccccc21 (stereo not shown) [Compound 10]
IC50 (sRAGE [3]; [17]): < 500 nM
IC50 (sRAGE [3]; [18]): < 500 nM
IC50 (sRAGE [3]; [19]): < 500 nM

CCCCn1c([C@@H](Cc2ccc(OCCc3ccc(Cl)cc3)cc2)NC(=O)OC(C)(C)C)nc2cc(OCCCN(CC)CC)ccc21 [Compound 11]
IC50 (sRAGE [3]; [17]): < 500 nM
IC50 (sRAGE [3]; [18]): < 500 nM
IC50 (sRAGE [3]; [19]): < 500 nM

O=C(c1ccc(Cl)cc1)N(Cc1ccccc1)C1CCCCC1 [Compound 12, N-Benzyl-N-cyclohexyl-4-chlorobenzamide]
Aβ1–40 and Aβ1–42 levels in brain (cortex, hippocampus) (APPsw/0 mice): reducing their levels in the cortex and the hippocampus; also recorded: • reduced Aβ1–40 and Aβ1–42 levels in brain
RAGE actions at the BBB and in the brain (APPsw/0 mice): • blocked RAGE actions at the BBB and in the brain
RAGE-mediated influx of circulating Aβ1–40 and Aβ1–42 into the brain (APPsw/0 mice): inhibited; also recorded: • inhibition of Aβ influx in the brain (in vivo)
binding specificity in the CNS (APPsw/0 mice): bound exclusively to RAGE
neuronal oxidative stress, microglia activation, neuroinflammation (APPsw/0 mice): reduced Aβ-induced RAGE-dependent oxidative stress in neurons, suppressed microglia activation, and neuroinflammation
cognitive performance and cerebral blood flow (APPsw/0 mice; aged APPsw/0 mice): • normalized cognitive performance and cerebral blood flow in aged APPsw/0 mice
soluble APP β protein, p65, NF-κB and BACE1 mRNA levels in cortex and hippocampus (APPsw/0 mice; ip 1 mg/kg daily for 2 months): reduced
dose not toxic (APPsw/0 mice; ip, 15–17-month-old APPsw/0 mice): up to 500 mg/kg
binding to immobilized Aβ (sRAGE [4]): did not bind
Aβ1–40, Aβ1–42, S100B, HMGB1 binding to RAGE (sRAGE [4]; in vitro): • inhibited Aβ1–40, Aβ1–42, S100B, HMGB1 binding to RAGE (in vitro)
BBB permeability: acceptable BBB permeability
toxicity in RAGE-transfected CHO cells ([5]; 10 μM): nontoxic
cytotoxicity / toxicology profile in vitro and in vivo ([5]; cell culture and rodents): good toxicology profile; also recorded: • low cytotoxicity in vitro and in vivo
Aβ1–40-induced NF-κB activation, BACE1 expression, cytokines ([5]; in vitro and in vivo): • reduced Aβ1–40-induced NF-κB activation, BACE1 expression, cytokines (in vitro and in vivo)
RAGE-mediated cellular oxidative stress, BACE1 mRNA, BACE1 activity, nuclear NF-κB levels ([5]; induced by Aβ1–40 and Aβ1–42): reduced
Aβ expression and APP production, NF-κB-mediated Aβ production, inflammatory response, ROS and lipid peroxidation [6]: reduction
antioxidant enzyme activity [6]: increased
GSH/GSSG ratio (aortas of aged rats): increased
malondialdehyde and ROS production (aortas of aged rats): reduced

O=C1CCC[C@@H]2[C@H]3CCCN4CCC[C@@H](CN12)[C@@H]34 [Compound 14, matrine, reference compound]
brain Aβ, NF-κB, BACE1 levels (APPswe/PS1 mice; ip 100 mg/kg): reduces
proinflammatory cytokines (TNF-α and IL-1β) (APPswe/PS1 mice; ip 100 mg/kg): downregulates
transport across the BBB (APPswe/PS1 mice; ip 100 mg/kg, AD transgenic mice): is transported across the BBB
Aβ-induced cytotoxicity [7]: inhibits Aβ-induced cytotoxicity
RAGE-Aβ signaling pathway (NF-κB and BACE1 expression levels) ([7]; 50 μM): decrease of NF-κB and BACE1 expression levels
Aβ1–42, NF-κB, BACE1 and cytokines ([7]; in vitro and in vivo): • reduced Aβ1–42, NF-κB, BACE1 and cytokines (in vitro and in vivo)
Aβ aggregation or fibrillation (Aβ): prevents Aβ aggregation or fibrillation

CC1NC(NCCC[C@H](N)C(=O)O)=NC1=O (stereo partly shown) [MG-H1, methylglyoxal-derived hydroimidazolone-1]
Kd (human sRAGE [8]): 40 nM

O=C(c1ccc([18F])cc1)N(Cc1ccccc1)C1CCCCC1 [[^18F]13]
metabolism in rat liver microsomes [9]: rapidly metabolized
time of peak after iv injection [10]: ≤ 3 min
washout over the PET scan [10]: virtually complete washout
nonspecific binding in vivo ([10]; iv injection): significant nonspecific binding to the white matter
uptake in frontal cortex of AD compared with healthy control tissue (human brain tissue): higher uptake

O=C(O)c1cccnc1C(=O)O [quinolinic acid]
neuronal death in the striatum (rats): dose-dependent neuronal death in the striatum

C[C@H](CCC(=O)O)[C@H]1CC[C@H]2[C@@H]3[C@@H](O)C[C@@H]4C[C@H](O)CC[C@]4(C)[C@H]3CC[C@]12C [ursodeoxycholic acid]
antiatherogenic activity (diabetic mice): antiatherogenic activity

ELKVLMEKEL [Compound 19, RAGE antagonistic peptide developed from the structure of S100P]
tumor growth, metastasis and inflammation [11]: reduction of tumor growth, metastasis, and inflammation
RAGE activation of NF-κB, inflammation, tumor growth and metastasis [12]: reduced; also recorded: inhibition of NF-κB, inflammation, tumor growth and metastasis

HMGB1 (amphoterin): high mobility group box 1, cytokine-type RAGE ligand
affinity for RAGE (Kd) (rat and mouse sRAGE): low nanomolar range
Kd (rat and mouse sRAGE; read-out: affinity for RAGE (Kd)): 6 to 10 nM

chondroitin sulfate E [Compound 15]
Kd (human RAGE [13]): 0.2 nM
lung colonization by tumor cells [14]: suppressed

heparan sulfate [Compound 16]
Kd (human RAGE [13]): 0.6 nM
lung colonization by tumor cells [14]: suppressed

heparin [Compound 17]
tumor cell growth, migration, invasion and distant metastasis (tumor cell): inhibited tumor cell growth, migration, invasion, and distant metastasis
Kd (human RAGE [13]): 3.1 nM

methylglyoxal-derived hydroimidazolones [MG-H]
Kd (human sRAGE [8]): 30 to 40 nM

β amyloid: β amyloid peptide, RAGE ligand
Kd (human sRAGE [15]; listed as 125I-labeled Aβ1–40): 75 nM
Kd (human sRAGE [15]): 70 to 80 nM

B1: S100P: S100 family protein binding the RAGE V domain (protein, UniProt P25815 1-95, looked up)
Protein S100-P: MTELETAMGMIIDVFSRYSGSEGSTQTLTKGELKVLMEKELPGFLQSGKDKDAVDKLLKDLDANGDAQVDFSEFIVFVAAITSACHKYFEKAGLK
Kd (human RAGE [16]): 6000 nM
